According to US20130018010A1, “POLYMERIC CONJUGATES OF ADENINE NUCLEOSIDE ANALOGS” (ENZON PHARMACEUTICALS, INC., priority 2010, published 2013):

Tests used:
[1] = system: human melanoma cells (A375); assay: Tumor growth inhibition in mice xenografted with human melanoma; assay type: in vivo; conditions: for tumor growth inhibition: 1 or 5 mg/kg/dose (toyocamycin equivalent) at day 1, 5, 9, 13, compared to toyocamycin i.v. 5 mg/kg/dose, FIG. 18; for tail vein necrosis: 1 or 5 mg/kg/dose at day 1, 5, 9, 13; for effectiveness in the treatment of melanoma: versus untreated, toyocamycin, or 54
Method: The antitumor efficacies of compounds 6, 10, and 54 evaluated in human melanoma xenografted mice. Xenograft tumors were established in mice by injecting human melanoma cells (A375). The mice were treated with toyocamycin i.v. at 5 mg/kg/dose, or compounds 6, 10, and 54 at 1 or 5 mg/kg/dose (based on the amount of toyocamycin) at day 1, 5, 9, and 13. Control group mice received saline solution.

[2] = Hydrolysis rate of PEG conjugates in rat plasma (HPLC); assay type: in vitro ADME; conditions: 37° C., disappearance of PEG derivative
Method: The rates of hydrolysis were obtained by employing a C18 reversed phase column (Jupiter®) using a gradient mobile phase consisting of (a) 0.05 M TFA buffer and (b) acetonitrile. A flow rate of 1 mL/min was used, and chromatograms were monitored using a UV detector at 260 nm for toyocamycin. For hydrolysis in plasma, the derivatives were dissolved in acetonitrile/MeOH at a concentration of 20 mg/mL. The solution was divided into vials with 100 μL and the solvent removed in vacuo. To the residue, 100 μL of plasma was added, then vortexed for 10 sec. The solutions were incubated at 37° C. for various periods of time. A mixture of methanol-acetonitrile (1:1, v/v, 400 μL) was added to a vial at the proper interval and the mixture was vortexed for 1 min, followed by filtration through […] filter membrane. An aliquot of 40 μL of the filtrate was injected into the HPLC. On the basis of the peak area, the amounts of native compound and PEG conjugates were estimated, and the half-life of each compound in different media was calculated using linear regression analysis from the disappearance of PEG derivative.
The rate of hydrolysis was measured by monitoring disappearance of polymer conjugates and appearance of the parent molecule by HPLC using the procedure for example as described in Example 4 in PBS and in rat plasma.

**Q.** For “40 k 4-Arm PEG-Carbamate-Aib-Toyocamycin [Compound 10]”, which tumor growth inhibition [1] is on record?
**A.** Its tumor growth inhibition is “inhibited tumor growth significantly compared to toyocamycin”.

**Q.** What about the tail vein necrosis [1] of the same substance?
**A.** Its tail vein necrosis is “observed in only one mouse”.

**Q.** And the “effectiveness in the treatment of melanoma” value [1]?
**A.** The value was “more effective in the treatment of melanoma than untreated, toyocamycin, or 54”.

**Q.** And the “t1/2 in rat plasma” value [2]?
**A.** Its value is 4.1 h.

**Q.** For “40 k 4-Arm PEG-carbamate-Leu-Toyocamycin [Compound 6]”, which tumor growth inhibition [1] is on record?
**A.** Its tumor growth inhibition is “inhibited tumor growth significantly compared to toyocamycin”.

**Q.** What about the tail vein necrosis [1] of the same substance?
**A.** Its tail vein necrosis is “observed in only one mouse”.

**Q.** What about the “effectiveness in the treatment of melanoma” value [1] of the same substance?
**A.** Its value is “more effective in the treatment of melanoma than untreated, toyocamycin, or 54”.

**Q.** And the “t1/2 in rat plasma” value [2]?
**A.** The value was 0.033 h.
